Experiments:
[1] = test system: normal NK cells expanded with K562-aAPC; test: percent inhibition of viability; higher = more inhibition; settings: 72 h, IL-2 2.5 ng/mL
Method: (§1)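 Drug sensitivity and resistance testing on K562-aAPC-expanded normal NK cells: 5 concentrations (10-fold steps over a 10,000-fold range), 72 h at 37 °C, viability by CellTiter-Glo normalised to DMSO and benzethonium chloride controls; DSS from the fitted curve.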

[2] = test system: KAI3 (IL-2 2.5 ng/mL); test: drug sensitivity score (DSS) (DSS units); higher = more sensitive; extreme values may be limits of the assay; settings: 72 h
[3] = test system: IMC-1 (IL-2 20 ng/mL); test: as above; settings: 72 h
[4] = test system: DERL-7 (IL-2 2.5 ng/mL); test: as above; settings: 72 h
[5] = test system: NK-92 (IL-2 2.5 ng/mL); test: as above; settings: 72 h
[6] = test system: normal primary NK cells, pool 2 (3 donors) (IL-2 2.5 ng/mL); test: as above; settings: 72 h
[7] = test system: NKL (IL-2 2.5 ng/mL); test: as above; settings: 72 h
[8] = test system: KHYG-1 (IL-2 2.5 ng/mL); test: as above; settings: 72 h
[9] = test system: normal primary NK cells, pool 3 (3 donors) (IL-2 2.5 ng/mL); test: as above; settings: 72 h
[10] = test system: NK-YS (IL-2 2.5 ng/mL); test: as above; settings: 72 h
[11] = test system: YT (IL-2 2.5 ng/mL); test: as above; settings: 72 h
[12] = test system: SNK-6 (IL-2 2.5 ng/mL); test: as above; settings: 72 h
[13] = test system: normal primary NK cells, pool 1 (3 donors), resting (IL-2 0 ng/mL); test: as above; settings: 72 h
[14] = test system: normal primary NK cells, pool 1 (3 donors) (IL-2 2.5 ng/mL); test: as above; settings: 72 h
[15] = test system: KAI3 (IL-2 2.5 ng/mL); test: percent inhibition of viability; higher = more inhibition; settings: 72 h
[16] = test system: IMC-1 (IL-2 20 ng/mL); test: as above; settings: 72 h
[17] = test system: DERL-7 (IL-2 2.5 ng/mL); test: as above; settings: 72 h
[18] = test system: NK-92 (IL-2 2.5 ng/mL); test: as above; settings: 72 h
[19] = test system: normal primary NK cells, pool 2 (3 donors) (IL-2 2.5 ng/mL); test: as above; settings: 72 h
[20] = test system: NKL (IL-2 2.5 ng/mL); test: as above; settings: 72 h
[21] = test system: KHYG-1 (IL-2 2.5 ng/mL); test: as above; settings: 72 h
[22] = test system: normal primary NK cells, pool 3 (3 donors) (IL-2 2.5 ng/mL); test: as above; settings: 72 h
[23] = test system: NK-YS (IL-2 2.5 ng/mL); test: as above; settings: 72 h
[24] = test system: YT (IL-2 2.5 ng/mL); test: as above; settings: 72 h
[25] = test system: SNK-6 (IL-2 2.5 ng/mL); test: as above; settings: 72 h
[26] = test system: normal primary NK cells, pool 1 (3 donors), resting (IL-2 0 ng/mL); test: as above; settings: 72 h
[27] = test system: normal primary NK cells, pool 1 (3 donors) (IL-2 2.5 ng/mL); test: as above; settings: 72 h
[28] = test system: normal NK cells expanded with K562-aAPC; test: drug sensitivity score (DSS) (DSS units); higher = more sensitive; extreme values may be limits of the assay; settings: 72 h; IL-2 2.5 ng/mL
Method: as §1

CC(C)(C)Cn1c(N)nc2ccc(-c3[nH]c(C(C)(C)C)nc3-c3ccc(F)cc3)nc21 [Ralimetinib] (max concentration tested 10000 nM)
percent inhibition of viability [%]
Settings | 1 nM | 10 nM | 100 nM | 1000 nM | 10000 nM
[1] | -3.87 | -2.62 | -1.53 | -3.78 | 1.72
[15] | 5.37 | 12.8 | 12.9 | 10.1 | 11
[16] | -2.69 | -3.53 | -8.24 | -9.02 | -12.2
[17] | -0.84 | 3.26 | 3.67 | 8.89 | 48.2
[18] | -0.07 | 2.05 | 1.85 | 13.3 | 86.5
[19] | -10.8 | -12.4 | -9.11 | -7.41 | 31.4
[20] | 0.97 | 4.97 | 7.92 | 17.1 | 70
[21] | -1.88 | -3.23 | -1.97 | 1.06 | 46.9
[22] | -7.2 | -12.3 | -15.7 | -6.16 | 11.3
[23] | -3.85 | 0.83 | 1.68 | 3.41 | 13.1
[24] | 1.29 | 1.91 | 4.09 | 6.38 | 55.6
[25] | -2.2 | -16 | -17.2 | -21.4 | 9.93
[26] | -14.8 | -29.1 | -0.22 | -17.7 | 77
[27] | -10.9 | -14.6 | 6.91 | -4.19 | 51.1

Settings | drug sensitivity score
[2] | 0
[3] | 0
[4] | 4
[5] | 7.03
[6] | 1.04
[7] | 6.44
[8] | 2.57
[9] | 0
[10] | 0.28
[11] | 4.06
[12] | 0
[13] | 3.35
[14] | 2.38
[28] | 0

C[C@]12C=CC(=O)C=C1CC[C@@H]1[C@@H]2C(=O)C[C@@]2(C)[C@H]1CC[C@]2(O)C(=O)CO [Prednisone] (max concentration tested 10000 nM)
percent inhibition of viability [%]
Settings | 1 nM | 10 nM | 100 nM | 1000 nM | 10000 nM
[1] | -4.43 | -1.43 | -0.64 | 6.95 | 22
[15] | -0.89 | -0.49 | 8.97 | -3.86 | 21.4
[16] | 0.28 | -0.37 | 3.06 | 4.05 | 15.4
[17] | -1.82 | -3.2 | -10.6 | 1.18 | -9
[18] | -5.87 | -0.1 | 11.4 | -3.86 | 13.6
[19] | -7.97 | -0.38 | -4.79 | -8.7 | -1.49
[20] | -9.04 | 4.61 | -4.53 | 4.17 | 10.7
[21] | -2.3 | -2.14 | 4.01 | 1.48 | 11.2
[22] | -8.77 | -7.64 | -1.51 | -4.94 | 0.45
[23] | 1.7 | 1.75 | 7.19 | 1.77 | 14.5
[24] | 1.47 | 5.85 | 29.5 | 18.9 | 32.6
[25] | -5.48 | 15 | 3.96 | 19.8 | 15
[26] | 11.6 | -5.07 | 6.95 | -4.28 | 11.9
[27] | 4.02 | -6.96 | 4.16 | -9.18 | 9.23

Settings | drug sensitivity score
[2] | 0.51
[3] | 0.5
[4] | 0
[5] | 0.06
[6] | 0
[7] | 0.06
[8] | 0.05
[9] | 0
[10] | 0.36
[11] | 8.17
[12] | 2.13
[13] | 0.01
[14] | 0
[28] | 1.61

COc1ccc(-c2nc(N3CCOCC3)c3sc(CN(C)c4ncc(C(=O)NO)cn4)cc3n2)cn1 [CUDC-907] (max concentration tested 10000 nM)
percent inhibition of viability [%]
Settings | 1 nM | 10 nM | 100 nM | 1000 nM | 10000 nM
[1] | 10.6 | 55.4 | 100 | 99.9 | 99.9
[15] | 52.6 | 75.5 | 102 | 104 | 98.9
[16] | -4.89 | 34.3 | 100 | 101 | 100
[17] | 23.5 | 99.7 | 100 | 100 | 99.7
[18] | 23.2 | 83.5 | 102 | 103 | 97
[19] | 1.42 | 74.2 | 94.2 | 94 | 94.8
[20] | 56.5 | 77 | 103 | 104 | 99.2
[21] | 16.1 | 94.5 | 103 | 103 | 98.7
[22] | -5.77 | 56.8 | 97.2 | 96.7 | 98.1
[23] | 6.56 | 55.9 | 101 | 103 | 99
[24] | 5.94 | 27.4 | 103 | 104 | 99.1
[25] | 0.83 | 63.5 | 99.8 | 100 | 100
[26] | 15.9 | 72.7 | 90.1 | 91 | 91.7
[27] | 2.74 | 68.2 | 96.4 | 97.7 | 97.2

Settings | drug sensitivity score
[2] | 43.4
[3] | 35.3
[4] | 46.5
[5] | 42.9
[6] | 37.7
[7] | 43.8
[8] | 44.4
[9] | 36.7
[10] | 37.1
[11] | 34.6
[12] | 37.9
[13] | 38.4
[14] | 38
[28] | 37.1

Nc1cccc2c1C(=O)N(C1CCC(=O)NC1=O)C2=O (stereo not given) [Pomalidomide] (max concentration tested 10000 nM)
percent inhibition of viability [%]
Settings | 1 nM | 10 nM | 100 nM | 1000 nM | 10000 nM
[1] | -10.8 | -9.91 | -9.37 | -11.8 | -8.13
[15] | -0.58 | -8.97 | -7.97 | -13.6 | -12.9
[16] | -4 | -1.04 | -2.22 | -4.13 | -2.92
[17] | -0.13 | -4.4 | 15.2 | -7.7 | -4.17
[18] | -1.19 | -10.2 | -3.35 | -12.4 | -16.6
[19] | -13.3 | 1.17 | -2.18 | -2.49 | -1.88
[20] | -6.14 | -8.75 | 7.72 | 18.5 | 21.2
[21] | -4.54 | -1.13 | -5.7 | -4.26 | -0.94
[22] | -16 | 7.94 | -8.83 | -7.7 | -5.51
[23] | -3.69 | -2.34 | -5.2 | -2.26 | -0.5
[24] | -5.53 | -2.96 | -0.67 | -5.5 | -0.71
[25] | -0.98 | 3.29 | 13.5 | -10.9 | 31.7
[26] | -1.02 | -19.1 | -32.7 | -20.7 | -23.7
[27] | -3.59 | -0.54 | -10.1 | 9.65 | 3.39

Settings | drug sensitivity score
[2] | 0
[3] | 0
[4] | 0
[5] | 0
[6] | 0
[7] | 3.93
[8] | 0
[9] | 0
[10] | 0
[11] | 0
[12] | 0.99
[13] | 0
[14] | 0
[28] | 0

Oc1c2ccccc2c2c3c(cccc13)N=N2 (max concentration tested 100000 nM)
percent inhibition of viability [%]
Settings | 10 nM | 100 nM | 1000 nM | 10000 nM | 100000 nM
[1] | -5.86 | -5.73 | -0.03 | 16.2 | 46.2
[15] | -1.06 | -0.37 | -1.44 | 36 | 77.2
[16] | -9.76 | -5.66 | -7.38 | 9.45 | 15.4
[17] | 0.02 | 10.7 | 21.6 | 53.3 | 72.7
[18] | 5.13 | 5.87 | 15.3 | 43.2 | 71.4
[19] | -8.33 | -0.93 | 6.2 | 28.3 | 40.2
[20] | -5.72 | 1.11 | 17.1 | 43.4 | 71.7
[21] | -9.58 | -4.25 | -1.77 | 41.2 | 79.2
[22] | -1.96 | 3 | 10.6 | 5.71 | 43.7
[23] | -9.38 | -3.05 | -7.51 | 20.3 | 61
[24] | -6.35 | -2.65 | -2.78 | 17.4 | 42.7
[25] | -6.71 | -15.7 | -11.4 | 25.4 | 66.8
[26] | 10.6 | 13.4 | 3.37 | 16 | 14.5
[27] | 1.28 | 6.88 | 11.3 | 22.6 | 57.5

Settings | drug sensitivity score
[2] | 8.9
[3] | 0.95
[4] | 12.8
[5] | 10.2
[6] | 5.61
[7] | 10.3
[8] | 9.5
[9] | 3.2
[10] | 6.25
[11] | 4.53
[12] | 7.17
[13] | 0
[14] | 5.75
[28] | 4.7
